Test results taken from PubChem BioAssay (NCI).
“And” between values parts separate entries of the source, which are not always exact repeats. Equal entries are not always repeated.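 All cell lines were grown in 96-well plates and treated with compound for 48 hours. GI50 = concentration required for 50% inhibition of growth. TGI: total growth inhibition.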

How the values were obtained:
Assay in all cases: inhibition of tumour cell growth, NCI panel, 48 h
[1] = system: HCT-15 colon
[2] = system: UACC-62 melanoma
[3] = system: IGROV1 ovarian
[4] = system: K-562 leukemia
[5] = system: SF-268 CNS
[6] = system: MDA-N
[7] = system: SK-MEL-5 melanoma
[8] = system: MALME-3M melanoma
[9] = system: SK-OV-3 ovarian

| SMILES | TGI [1] | TGI [2] | TGI [3] | TGI [4] | TGI [5] | TGI [6] | TGI [7] | TGI [8] | TGI [9] | GI50 [1] | GI50 [3] | GI50 [5] | GI50 [7] |
| --- | --- | --- | --- | --- | --- | --- | --- | --- | --- | --- | --- | --- | --- |
| O=C1C(Br)=C(c2ccccc2)O/C1=C/C(=O)c1ccc(Br)cc1 | > 100 µM | > 100 µM | > 100 µM | > 100 µM | > 100 µM | > 100 µM | > 100 µM | > 100 µM |  |  |  |  |  |
| COc1ccc(-n2c(N)c(C#N)[nH]c2=O)cc1 | > 10 µM | > 10 µM | > 10 µM | > 10 µM | > 10 µM | > 10 µM | > 10 µM | > 10 µM | > 10 µM |  |  |  |  |
| Cc1ccc(/C=N/n2c(-c3ccc(C)cc3)n[nH]c2=O)cc1 | > 100 µM | > 100 µM | > 100 µM | > 100 µM | > 100 µM | > 100 µM | > 100 µM | > 100 µM | 66.9 µM |  |  |  |  |
| COc1cc2c(cc1OC)C(=O)N(c1ccc(O)cc1)C2=O | > 100 µM | > 100 µM | > 100 µM | > 100 µM | > 100 µM | > 100 µM | > 100 µM | > 100 µM | > 100 µM |  |  |  |  |
| C=CCC1CC(n2cc(C)c(=O)[nH]c2=O)OC1CO[Si](C)(C)C(C)(C)C (configuration not stated) | 29.1 µM | 31.7 µM | 23.4 µM | 24.3 µM | 30.9 µM | 27.4 µM | 29.9 µM | 23.2 µM | 29.2 µM |  |  |  |  |
| CC(C)(C)OC(=O)NC1CC2(C=C(Br)C(=O)C(Br)=C2)OC1=O (configuration not stated) | 23 µM | 32.4 µM | 31.2 µM | 13.5 µM | 32.2 µM | 15.3 µM | 31.1 µM | 18.9 µM | 32.1 µM |  |  |  |  |
| COc1ccc(-n2[nH]nc(C(N)=O)c2=O)cc1 | > 100 µM | > 100 µM | > 100 µM | > 100 µM | > 100 µM | > 100 µM | > 100 µM | > 100 µM | > 100 µM |  |  |  |  |
| CC1=NC2=Nc3nc(C)cc[n+]3CN2C=C1 | > 100 µM | > 100 µM | > 100 µM |  | > 100 µM |  | > 100 µM | > 100 µM | > 100 µM |  |  |  |  |
| O=S(=O)(O)c1cc(N=Nc2c(O)ccc3ccccc23)ccc1/C=C/c1ccc(N=Nc2c(O)ccc3ccccc23)cc1S(=O)(=O)O | > 100 µM | > 100 µM | > 100 µM | > 100 µM | > 100 µM | > 100 µM | > 100 µM | > 100 µM | > 100 µM |  |  |  |  |
| Cc1ccc(NC=O)c(-c2c(N)[nH]c(=S)[nH]c2=O)c1 | > 100 µM | > 100 µM | > 100 µM | > 100 µM | > 100 µM | > 100 µM | > 100 µM | > 100 µM | 91.7 µM |  |  |  |  |
| COC(=O)C1Cc2cc3c(cc2C1=O)CCCC3 (configuration not stated) | > 100 µM | > 100 µM | > 100 µM | > 100 µM | > 100 µM | > 100 µM | > 100 µM | > 100 µM | > 100 µM |  |  |  |  |
| c1cc2c(s1)-c1sccc1C21OCCO1 | > 100 µM | > 100 µM |  | > 100 µM | > 100 µM | > 100 µM | > 100 µM | > 100 µM |  |  |  |  |  |
| CC(NC(=O)NC(C)(C)C)NC(=O)C(N)CC(=O)O (configuration not stated) | > 100 µM | > 100 µM | > 100 µM | > 100 µM | > 100 µM | > 100 µM | > 100 µM | > 100 µM | > 100 µM |  |  |  |  |
| CO/N=C(/C)c1cccc(Nc2nc3ccccc3c3[nH]c4ccccc4c23)c1 | 23.6 µM | 19.3 µM | 30.6 µM | > 100 µM | 25.7 µM | 20.4 µM | 18.2 µM |  | 40.3 µM |  |  |  |  |
| C=C1C(=O)O[C@H]2C[C@@]3(COC(C)=O)C=COC=C(COC(=O)C(C)C)C3CC12 (some centres not stated) | > 100 µM | 41.2 µM | > 100 µM | > 100 µM |  | > 100 µM | > 100 µM | > 100 µM |  |  |  |  |  |
| CC(=O)OC12C3C4C1C1C2C3C41OC(C)=O (configuration not stated) | > 100 µM | > 100 µM | > 100 µM | > 100 µM | > 100 µM |  | > 100 µM |  | > 100 µM |  |  |  |  |
| Cc1nc(CC#N)n[nH]1 | > 100 µM | > 100 µM | > 100 µM | > 100 µM | > 100 µM | > 100 µM | > 100 µM |  | > 100 µM |  |  |  |  |
| CC(=N\N)/C(C)=N/N=C(C)/C(C)=N/N | > 100 µM |  | > 100 µM |  | > 100 µM | > 100 µM | > 100 µM | > 100 µM | > 100 µM |  |  |  |  |
| CS(=O)(=O)c1nc(-c2cc3c(c(S(C)(=O)=O)n2)CCCC3)cc2c1CCCCC2 | > 100 µM | > 100 µM | 54.3 µM |  | 85.1 µM | > 100 µM | > 100 µM |  | > 100 µM |  |  |  |  |
| CCOC(=O)c1[nH]c(Br)c(-c2ccc(OC)c(OC)c2)c1Br | 15.4 µM | 22 µM | 11.9 µM | 12.7 µM | 35.7 µM |  | 4.3 µM and 6.5 µM |  |  | 0.04 µM | 0.0494 µM | 1.03 µM | 0.0339 µM |
| COC(=O)CCC1=C(CC(=O)OC)C(C)(OC)N=C1NC(=O)OCc1ccccc1 (configuration not stated) | > 100 µM | > 100 µM | > 100 µM | > 100 µM | > 100 µM |  | > 100 µM | > 100 µM | > 100 µM |  |  |  |  |
| O=CNNC(=O)Nc1cccc2ccccc12 | > 100 µM | > 100 µM | > 100 µM | > 100 µM | > 100 µM |  | > 100 µM | > 100 µM | > 100 µM |  |  |  |  |
| CCCCCCCCCCCCCCCCNC(=O)C(=O)/C=C(\O)c1ccc(C)cc1 | > 10 µM |  | > 10 µM | > 10 µM | > 10 µM | > 10 µM | > 10 µM | > 10 µM | > 10 µM |  |  |  |  |
| O=C(NCCN1CCOCC1)c1cn2c(ccc3sc4ccccc4c(=O)c32)n1 | > 100 µM |  | > 100 µM | > 100 µM | > 100 µM | > 100 µM | 60.6 µM | > 100 µM |  |  |  |  |  |
